In the assay the target is endothelin converting enzyme (ECE) (Sus scrofa, UniProt F1SU04). The assay is described as follows: "ECE" assay with porcine aortic "ECE" prep, fluorogenic substrate Suc-Ile-Ile-Trp-MCA. The assay is classed as biochemical. Here is the method:
IC50 values were determined as follows:
Porcine Aortic "ECE" Prep
Porcine aortas (22-25) were obtained fresh from a local slaughterhouse and delivered in cold PBS on ice. The aortas were cut open, rinsed with cold PBS and the endothelial cell layer scraped into cold PBS using a scalpel. The endothelial cells were pelleted by centrifugation, rinsed once with cold PBS, and repelleted. The pellet was lysed by addition of 10 volumes of 10 mM Tris-HCl, pH 7.0, containing protease inhibitors and DTS, followed by brief sonication and homogenization. The lysate was centrifuged at 100,000 g for 1 hour and the supernatant applied to a MONOQ FPLC anion exchange column equilibrated in 10 mM Tris-HCl, pH 7.0 (buffer A) which was then developed with an increasing gradient of NaCl in buffer A. The active fractions were aliquoted and stored at -70° C.
The ECE assay was performed in 96-well microplates in a total volume of 200μ/well. The assay cocktail contains 100 mM Tris-HCl, pH 7.0, 20 mM CaCl2, 80 μM substrate (Suc-Ile-Ile-Trp-MCA), enzyme and test compounds. The test compounds were preincubated with the enzyme for 15-20 minutes before initiation of the assay by addition of the substrate. The assay was incubated overnight at 37° C. and the fluorescence intensity caused by the release of AMC was determined using a fluorescence microplate reader (EX360 nm/EM460 nm). IC50 values for compounds were determined by constructing concentration-effect curves for the inhibition of enzyme activity. Concentrations on the linear portion of the inhibition curve were used to determine the IC50 utilizing a Hill plot.

Where [1] appears, read: porcine aortic endothelial cell ECE prep, 80 μM Suc-Ile-Ile-Trp-MCA, 15-20 min preincubation, overnight at 37° C., pH 7.0, AMC fluorescence.

Non-standard residues stand in square brackets, D forms with d. Residues, ends and D or L forms follow the SMILES beside them. ξ: configuration not given here. *: point of attachment. Phe(4-Br) = N[C@@H](Cc1ccc(Br)cc1)C(=O)O; Phe(4-I) = N[C@@H](Cc1ccc(I)cc1)C(=O)O; 1Nal = N[C@@H](Cc1cccc2ccccc12)C(=O)O; ξW = NC(Cc1c[nH]c2ccccc12)C(=O)O; Cbz = O=C(OCc1ccccc1)*; Pentanoyl = CCCCC(=O)*; Bn = c1ccc(C*)cc1

The term IC50 denotes the concentration needed to halve the response being measured. Lower therefore signals greater potency.

Chain of endothelin converting enzyme (ECE) (F1SU04 entry or part of it): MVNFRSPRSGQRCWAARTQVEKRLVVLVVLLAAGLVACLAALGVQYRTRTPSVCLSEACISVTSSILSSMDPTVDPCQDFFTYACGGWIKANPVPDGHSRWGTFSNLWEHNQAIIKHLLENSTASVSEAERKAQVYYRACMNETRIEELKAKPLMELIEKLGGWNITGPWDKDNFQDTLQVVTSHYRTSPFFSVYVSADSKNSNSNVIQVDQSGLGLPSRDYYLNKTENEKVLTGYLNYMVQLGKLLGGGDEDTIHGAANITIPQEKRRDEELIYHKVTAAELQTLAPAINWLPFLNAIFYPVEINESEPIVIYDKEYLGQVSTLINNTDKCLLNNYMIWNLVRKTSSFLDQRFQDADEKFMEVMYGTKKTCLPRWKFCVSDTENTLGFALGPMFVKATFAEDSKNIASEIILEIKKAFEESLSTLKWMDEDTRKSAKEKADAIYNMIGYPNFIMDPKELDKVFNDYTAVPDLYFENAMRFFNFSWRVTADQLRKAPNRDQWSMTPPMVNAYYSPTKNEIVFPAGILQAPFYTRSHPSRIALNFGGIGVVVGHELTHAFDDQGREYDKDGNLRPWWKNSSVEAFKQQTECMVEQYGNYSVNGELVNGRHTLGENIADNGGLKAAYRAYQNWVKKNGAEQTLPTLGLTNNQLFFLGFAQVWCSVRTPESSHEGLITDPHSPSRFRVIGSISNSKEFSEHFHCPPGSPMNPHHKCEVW

As for `CC[C@H](C)[C@H](NC(=O)OCc1ccccc1)C(=O)N[C@H](C(=O)N[C@H](C=O)Cc1c[nH]c2ccccc12)[C@@H](C)CC` [Example 15, N-Benzyloxycarbonyl-S-isoleucyl-S-isoleucine 1-S-formyl-2-(1H-indol-3-yl]ethylamide] (Cbz-Ile-Ile-Trp-aldehyde), the IC50 under setting [1] amounted to 200 nM.

In turn, “N-Benzyloxycarbonyl-L-isoleucyl-L-isoleucine-L-N-[1-[2-oxiranylcarbonyl]-2- (phenyl)ethyl]amide [Example 45]” came in with an IC50 under setting [1] of 200 nM.

In the case of `CCCCC(=O)N[C@H](C(=O)N[C@H](C(=O)NC(C=O)Cc1c[nH]c2ccccc12)[C@@H](C)CC)[C@@H](C)CC` (stereo partly drawn) [Example 72] (Pentanoyl-Ile-Ile-[ξW]-aldehyde), it took 150 nM to reach half-maximal inhibition under setting [1] (IC50).

“N-Benzyloxycarbonyl-L-isoleucyl-L-isoleucine-L-N-[(E)-2-(methoxycarbonyl)vinyl]2-(1H-indol-3-yl)ethyl]amide [Example 51]” returned an IC50 under setting [1] of 10000 nM.

`CC[C@H](C)[C@H](NC(=O)CCCCCNC(=O)CCCCCNC(=O)c1cc(=O)[nH]c(=O)[nH]1)C(=O)N[C@H](C(=O)NC(C=O)Cc1c[nH]c2ccccc12)[C@@H](C)CC` (stereo partly drawn) [Example 69] had an IC50 under setting [1] of 60 nM.

The molecule “N-Benzyloxycarbonyl-S-isoleucyl-S-phenylalanyl-1-S-formyl-1-(S)-1-methylpropylbutyl-methylamide [Example 23]” had an IC50 under setting [1] of 3500 nM.

For `CC[C@H](C)[C@H](NC(=O)CCCCc1ccccc1)C(=O)N[C@H](C(=O)NC(C=O)Cc1c[nH]c2ccccc12)[C@@H](C)CC` (stereo partly drawn) [Example 89], half-maximal inhibition under setting [1] (IC50) was put at 50 nM.

“N-Benzyloxycarbonyl-L-isoleucyl-L_isoleucine-L-N-[1[2-(acetylthio)acetyl]2- phenyl)ethyl]amide [Example 55]” returned an IC50 under setting [1] of 8000 nM.

Take `CC[C@H](C)[C@H](NC(=O)OCc1ccccc1)C(=O)N[C@H](C(=O)NC(CNC(=O)CCl)Cc1c[nH]c2ccccc12)[C@@H](C)CC` (stereo partly drawn) [Example 85, N-(benzyloxy)carbonyl-L-isoleucyl-L-isoleucine-L-N-[1-[(2-chloroacetamido]methy]-2-(1H-indol-3-yl)ethyl]amide]: the IC50 under setting [1] is 10000 nM.

Turning to `CC[C@H](C)[C@H](NC(=O)OCc1ccccc1)C(=O)N[C@H](C(=O)N[C@H](C=O)Cc1ccc(O)cc1)[C@@H](C)CC` [Example 33, N-Benzyloxycarbonyl-S-isoleucyl-S-isoleucyl-1-S-formyl-1-(4-hydroxy-benzyl)-methylamide] (Cbz-Ile-Ile-Tyr-aldehyde), the midpoint of inhibition under setting [1], the IC50, lay at 200 nM.

`O=C(N[C@@H](Cc1ccc(Br)cc1)C(=O)N[C@@H](Cc1cccc2ccccc12)C(=O)NC(Cc1ccccc1)C(=O)C1CO1)OCc1ccccc1` (stereo partly drawn) [Example 94]: under setting [1], the IC50 is 6 nM.

On to `CC[C@H](C)[C@H](NC(=O)OCc1ccccc1)C(=O)N[C@H](C(=O)N[C@H](C=O)CC(C)C)[C@@H](C)CC` [Example 17, N-Benzyloxycarbonyl-S-isoleucyl-S-isoleucine 1-S-formyl-3-methyl-butylamide] (Cbz-Ile-Ile-Leu-aldehyde), for which the IC50 under setting [1] was 4400 nM.

`CC[C@H](C)[C@H](NC(=O)OCc1ccccc1)C(=O)N[C@H](C(=O)NC(Cc1ccccc1)C(=O)C(=O)C(=O)OC)[C@@H](C)CC` (stereo partly drawn) [Example 96, N-[(benzyloxy)carbonyl]-L-isoleucyl-L-isoleucine-L-N-[1-(3-methoxycarbonyloxalyl]2-(phenyl)ethyl]amide]: the IC50 under setting [1] is 10000 nM.

Consider `CC[C@H](C)[C@H](NC(=O)OCc1ccccc1)C(=O)N[C@H](C(=O)NC(CNC(=O)CO)Cc1c[nH]c2ccccc12)[C@@H](C)CC` (stereo partly drawn) [Example 86, N-(benzyloxy)carbonyl-L-isoleucyl-L-isoleucine-L-N-[1-[(2-hydroxyacetamido]methyl]-2-(1H-indol-3-yl)ethyl]amide], for which, under setting [1], inhibition was half-maximal at 10000 nM (IC50).

The molecule `CC[C@H](C)[C@H](NC(=O)OCc1ccccc1)C(=O)N[C@H](C(=O)N[C@H](C=O)Cc1ccccc1)[C@@H](C)CC` [Example 16, N-Benzyloxycarbonyl-S-isoleucyl-S-isoleucine 1-S-formyl-2-phenyl-ethylamide] (Cbz-Ile-Ile-Phe-aldehyde) registered an IC50 under setting [1] of 400 nM.

`CC[C@H](C)[C@H](NC(=O)CCOc1ccccc1)C(=O)N[C@H](C(=O)N[C@H](C=O)Cc1c[nH]c2ccccc12)[C@@H](C)CC` [Example 90] came in with an IC50 under setting [1] of 60 nM.

Turning to `CC[C@H](C)[C@H](NC(=O)[C@H](Cc1ccccc1)NC(=O)OCc1ccccc1)C(=O)N[C@H](C=O)Cc1c[nH]c2ccccc12` [Example 25, N-Benzyloxycarbonyl-S-phenylalanyl-S-isoleucyl-1-S-formyl-1-(1H-indol-3-yl-methyl)-methylamide] (Cbz-Phe-Ile-Trp-aldehyde), the IC50 under setting [1] amounted to 300 nM.

On to “N-(benzyloxy)carbonyl-L-isoleucyl-L-isoleucine-L-N[1-[[(5-nitro-2-pyridyl)dithio]methyl]-2-(1H-indol-3-yl)ethyl]amide [Example 57]”, for which the IC50 under setting [1] was 1000 nM.

As to `O=C[C@H](Cc1c[nH]c2ccccc12)NC(=O)[C@H](Cc1cccc2ccccc12)NC(=O)[C@H](Cc1ccc(I)cc1)NC(=O)OCc1ccccc1` [Example 40, N-Benzyloxycarbonyl-S-p-iodophenylalanyl-S-1'naphthylalanyl-1-S-formyl-1-(1H-indol-3-yl-methyl)-methylamide] (Cbz-[Phe(4-I)]-[1Nal]-Trp-aldehyde), the midpoint of inhibition (pH 7), the IC50, lay at 10 nM.

“N-[(benzyloxy)carbonyl]-L-aspart-1-yl]-L-isoleucyl-L-isoleucine-L-N-[1-dimethoxymethyl]2-(1H-indol-3-yl)ethyl]amide [Example 76]”: inhibition under setting [1] was half-maximal at 2600 nM (IC50).

“N-Benzyloxycarbonyl-S-tryptophanyl-S-tryptophanyl-1-S-formyl-1-(1H-indol-3- yl-methyl)-methylamide [Example 31]” came in with a half-maximal inhibitory concentration (IC50) under setting [1] of 60 nM.

For the molecule `O=C[C@H](Cc1c[nH]c2ccccc12)NC(=O)[C@H](Cc1c[nH]c2ccccc12)NC(=O)[C@H](Cc1c[nH]c2ccccc12)NC(=O)CCCCC1SCC2NC(=O)NC21` (stereo partly drawn) [Example 91, N-[[5-(hexahydro-2-oxo-1H-thieno[3,4-d]imidazol-4-yl)pentanoyl]-L-tryptophanyl-L-tryptophan-L-N-[1-formyl]2-(1H-indol-3-yl)ethyl]amide], the midpoint of inhibition under setting [1], the IC50, lay at 5 nM.

As to `CC[C@H](C)[C@H](NC(=O)OCc1cccnc1)C(=O)N[C@H](C(=O)N[C@H](C=O)Cc1c[nH]c2ccccc12)[C@@H](C)CC` [Example 81], under setting [1], half-maximal inhibition (IC50) required 200 nM.

Under setting [1], `O=C[C@H](Cc1ccc(Br)cc1)NC(=O)[C@H](Cc1ccc(OCc2ccccc2)cc1)NC(=O)[C@H](Cc1ccc(OCc2ccccc2)cc1)NC(=O)OCc1ccccc1` [Example 98, N-Benzyloxycarbonyl-S-(O-benzyl)tyrosyl-S-(O-benzyl)tyrosyl-1-S-formyl-1-(4-bromophenylmethyl)-methylamide] (Cbz-Tyr(Bn)-Tyr(Bn)-[Phe(4-Br)]-aldehyde) came in with an IC50 of 1000 nM.

“N-Benzyloxycarbonyl-L-isoleucyl-L-isoleucine-L-N-[1-glyoxyloyl-2-(phenyl)ethyl]amide [Example 46]” came in with an IC50 under setting [1] of 800 nM.

Molecule “N-[12-[(benzyloxy)acetamido]dodecanoyl]--L-isoleucyl-L-isoleucine-L-N-[1-formyl]2-(1H-indol-3-yl)ethyl]amide [Example 79]” yielded an IC50 under setting [1] of 60 nM.

As to `CC[C@H](C)[C@H](NC(=O)OCc1ccccc1)C(=O)N[C@H](C(=O)N[C@H](CNC(=O)CN1C(=O)C=CC1=O)Cc1c[nH]c2ccccc12)[C@@H](C)CC` [Example 84], the IC50 under setting [1] is 1000 nM.

Regarding “[[5-(hexahydro-2-oxo-1H-thieno[3,4-d]imidazol-4-yl]valeryl-L-isoleucyl-L-isoleucine-L-N-[1-dimethoxymethyl]2-(1H-indol-3-yl)ethyl]amide [Example 62]”, half-maximal inhibition under setting [1] (IC50) was put at 2000 nM.

On to `CC[C@H](C)[C@H](NC(=O)OCc1ccccc1)C(=O)N[C@H](C(=O)NC(CNC(=O)CCN1C(=O)C=CC1=O)Cc1c[nH]c2ccccc12)[C@@H](C)CC` (stereo partly drawn) [Example 83, N-(benzyloxy)carbonyl-L-isoleucyl-L-isoleucine-L-N-[1-[(3-maleimidopropionamido]methyl]-2-(1H-indol-3-yl)ethyl]amide], for which, under setting [1], the concentration for half-maximal inhibition (IC50) was 1000 nM.

Turning to “N-(3-Phenylpropionyl)-L-isoleucyl-L_isoleucine-L-N-[1-formyl]2-(1H-indol-3- yl)ethyl]amide [Example 59]”, under setting [1], 100 nM corresponded to half-maximal inhibition (IC50).

In the case of `C[C@H](NC(=O)OCc1ccccc1)C(=O)N[C@@H](Cc1ccccc1)C(=O)N[C@H](C=O)Cc1c[nH]c2ccccc12` [Example 26, N-Benzyloxycarbonyl-S-alanyl-S-phenylalanyl-1-S-formyl-1-(1H-indol-3-yl-methyl)-methylamide] (Cbz-Ala-Phe-Trp-aldehyde), under setting [1], the IC50 amounted to 1500 nM.

As for `CCOC(=O)C1OC1C(=O)NCC(Cc1c[nH]c2ccccc12)NC(=O)[C@@H](NC(=O)[C@@H](NC(=O)OCc1ccccc1)[C@@H](C)CC)[C@@H](C)CC` (stereo partly drawn) [Example 82], under setting [1], the IC50 was determined as 10000 nM.

Take `CC[C@H](C)[C@H](NC(=O)OCc1ccccc1)C(=O)N[C@H](C(=O)NC(Cc1c[nH]c2ccccc12)NC(=O)COC(C)=O)[C@@H](C)CC` (stereo partly drawn) [Example 80]: the IC50 under setting [1] amounted to 10000 nM.

Values taken from US6235717A, “Pharmaceutical compounds” (Glaxo Wellcome Inc., priority 1993, dated 2001).
